One data set has as its target CYP2D6 (Homo sapiens, UniProt P10635). Briefly: Apparent inhibition constants of drugs for CYP 2D6 with MOBFC as sensor. The method, then:
CYP 2D6 was incubated with 10 μM concentrations of various known inhibitors and drug substrates and residual CYP 2D6 activity assayed with the fluorogenic substrate MOBFC. The assay was performed in a 96-well plate at room temp and at a volume of 100 μl/well. 4×enzyme buffer was prepared and 25 μl was added to each well on the plate, for final assay concentrations of 3.3 mM glucose-6-phosphate, 0.4 units/ml glucose-6-phosphate dehydrogenase and 10 mM MgCl2 in 100 mM K+ phosphate, pH 8.0. […] Six consecutive 1:3 dilutions were made and 50 μl of each was added to appropriate wells on the assay plate. The CYP2D6 was diluted to a solution of 2 pmol/10 μl in 100 mM K+ phosphate and 10 μl was added to each well. 20 μl of buffer was added to each well containing standard. The drug inhibitors were allowed to pre-incubated with the CYP 2D6 enzyme for 1 hr prior to the addition of the MOBFC substrate. […] Hydroxy-trifluoro-methylcoumarin was diluted to 100 μM in K+ phosphate buffer, and seven consecutive 1:2 dilutions were made. […] After addition of 10 μl of 13 mM NADP+ solutions to all wells the assay plate was placed into the fluorescence microtiter plate reader and fluorescence measured at 3 minute intervals for 60 minutes.

In the next data set the target is CYP2C9 (Homo sapiens, UniProt P11712). The data set can be described thus: Kinetic properties of substrate BOMF with CYP 2C9 (Tris-HCl buffer). In kind it is biochemical.
Chain of CYP2C9 (P11712 whole entry): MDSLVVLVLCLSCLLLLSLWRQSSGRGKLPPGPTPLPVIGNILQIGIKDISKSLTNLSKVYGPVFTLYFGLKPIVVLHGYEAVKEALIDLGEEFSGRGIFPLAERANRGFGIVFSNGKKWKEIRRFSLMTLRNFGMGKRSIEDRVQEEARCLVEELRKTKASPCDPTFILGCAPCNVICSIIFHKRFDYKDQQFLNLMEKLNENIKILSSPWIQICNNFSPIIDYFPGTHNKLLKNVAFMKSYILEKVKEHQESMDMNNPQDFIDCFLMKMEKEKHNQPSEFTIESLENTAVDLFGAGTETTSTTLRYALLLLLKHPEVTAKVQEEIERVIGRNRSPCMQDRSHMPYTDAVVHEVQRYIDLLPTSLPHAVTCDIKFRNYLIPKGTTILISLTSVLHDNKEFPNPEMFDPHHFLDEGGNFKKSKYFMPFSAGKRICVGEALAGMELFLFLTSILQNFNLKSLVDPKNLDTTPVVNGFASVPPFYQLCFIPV
The target of data set [1] is T1, CYP3A4 (Homo sapiens, UniProt P08684). Briefly: Kinetic properties of fluorescein-based fluorogenic substrates with CYP 3A4. In kind it is biochemical. The procedure:
(§1) Dibenzylfluorescein (DBF) was purchased form Gentest, Woburn, Mass. […] DBF, BOMF and DBOMF were diluted from a stock solution of 2 mM in acetonitrile to a 4×concentration of 80 μM in 100 mM K+ phosphate buffer. Seven 1:2 dilutions were made of each substrate of which 25 μl was added to the appropriate wells. […] The cytochrome P450 isozyme CYP3A4 was diluted to give a 0.5 pmol enzyme per well and added in a volume of 10 μl/well in K+ phosphate, pH 8.0. Enzymatic conversion of the substrate to products was allowed to proceed for 1 hour with fluorescence reads taken every four minutes on a fluorescence microtiter plate reader. The solution was illuminated using an 485/20 nm excitation filter and fluorescence emission was detected through a 530/25 nm the emission filter.

For data set [2], the target named is T1, CYP3A4. The data set can be described thus: Kinetic properties of fluorogenic substrates with CYP 3A4. In kind it is biochemical. An excerpt: For further understanding these terms in the context of this invention, attention is directed to FIG. 4 and the analysis of FIG. 4.
(§2) (respectively, MFC and MR).

For data set [3], the target named is T1, CYP3A4. Briefly: Kinetics of BOMR and BR toward CYP 3A4 (FIG. 4). As to conditions: from FIG. 4 data. In kind it is biochemical. An excerpt: Whichever of the four abstractable hydrogen atoms (designated H^1 and H^2 in this representation of BOMR) is removed in the initial reaction step, with reference to Reaction Scheme 1 of FIG. 1, the hydroxylation product will spontaneously decompose to the free resorufin dye. In addition, the benzyloxy group, attached to the carbon carrying the two hydrogens designated H^2, contributes an inductive electronic effect on that carbon, which can stabilize the radical formed during abstraction of one of the H^2 hydrogens by a cytochrome P450.
Optimization of assay conditions was, and is preferably, accomplished through statistically validated Design of Experiments methodologies, using the commercial software package “Design-Expert®” produced by Stat-Ease® Inc. The data shown in FIGS. 4 and 5 were obtained with initial optimization.

The target in another data set is T2, CYP 2B6 (Homo sapiens, UniProt P20813).
T2 sequence (P20813 1-491): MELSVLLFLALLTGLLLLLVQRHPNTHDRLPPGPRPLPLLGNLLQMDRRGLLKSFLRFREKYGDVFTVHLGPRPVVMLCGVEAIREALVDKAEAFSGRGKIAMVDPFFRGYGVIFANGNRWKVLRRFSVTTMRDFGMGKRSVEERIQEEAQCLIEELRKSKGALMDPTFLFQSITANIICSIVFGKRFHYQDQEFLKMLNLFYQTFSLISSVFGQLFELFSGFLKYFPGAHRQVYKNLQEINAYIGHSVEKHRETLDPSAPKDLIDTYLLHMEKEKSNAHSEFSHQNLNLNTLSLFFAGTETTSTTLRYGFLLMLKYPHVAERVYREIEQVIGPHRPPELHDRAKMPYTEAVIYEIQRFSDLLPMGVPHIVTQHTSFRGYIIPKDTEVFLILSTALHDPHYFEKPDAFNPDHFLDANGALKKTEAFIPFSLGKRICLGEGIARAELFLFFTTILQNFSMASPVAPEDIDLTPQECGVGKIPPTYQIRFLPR
Briefly: Kinetic properties of fluorogenic substrates with CYP 2B6. It counts as biochemical.

Data set [4] deals with T1, CYP3A4.
Data set [5] has as its target T1, CYP3A4. Briefly: in vitro. The following applies: pH 8, % inhibition; for inhibition at 20 min, 10 µM: Condition A; for inhibition at 40 min, 10 µM: Condition B.
Substrate in data set [6]: O=C(OCOCc1ccccc1)c1ccccc1-c1c2ccc(=O)cc-2oc2cc(OCOCc3ccccc3)ccc12
The data set can be described thus: Kinetic properties of fluorescein-based fluorogenic substrates with CYP 2C8. The following applies: other: 100 mM K+ phosphate buffer, pH 7.5. It counts as biochemical, human. The procedure:
as §1
(§3) In deviation from the protocol described in Example 32, the phosphate-based buffer (100 mM K+ phosphate, pH 8.0) was replaced throughout the procedure by 100 mM K+ phosphate buffer, pH 7.5. […] Specifically, the substrate dibenzylfluorescein (DBF) (purchased form Gentest, Woburn, Mass.) and the sensor of the present invention DBOMF were tested for activity with CYP 2C8.

Substrate in data set [7]: O=C(OCc1ccccc1)c1ccccc1-c1c2ccc(=O)cc-2oc2cc(OCc3ccccc3)ccc12
Described as above. It counts as biochemical, human. The following applies: other: 100 mM K+ phosphate buffer, pH 7.5. The procedure:
as §1, §3

Substrate in data set [8]: COc1ccc(COc2ccc3nc4ccc(=O)cc-4oc3c2)cc1
The data set can be described thus: Kinetic properties of fluorogenic substrates with CYP 2D6. In kind it is biochemical, human. As to conditions: other: — = too low to quantify.
Source text: as §2

Substrate in data set [9]: CC(C)Oc1ccc2cc(C#N)c(=O)oc2c1
The data set is described as above. As to conditions: other: — = too low to quantify. In kind it is biochemical, human.
Source text: as §2

Substrate in data set [10]: COc1ccc(COc2ccc3c(C(F)(F)F)cc(=O)oc3c2)cc1
The description is as above. In kind it is biochemical, human. As to conditions: other: — = too low to quantify.
Source text: as §2

Substrate in data set [11]: COCOc1ccc2nc3ccc(=O)cc-3oc2c1
The data set is described as above. It counts as biochemical, human. The following applies: other: — = too low to quantify.
Source text: as §2

[12] abbreviates: turnover rate at 1.25 uM substrate, — = too low to quantify.
Setting [13] is: turnover rate at 10 uM substrate, — = too low to quantify.

T1 sequence (P08684 whole entry): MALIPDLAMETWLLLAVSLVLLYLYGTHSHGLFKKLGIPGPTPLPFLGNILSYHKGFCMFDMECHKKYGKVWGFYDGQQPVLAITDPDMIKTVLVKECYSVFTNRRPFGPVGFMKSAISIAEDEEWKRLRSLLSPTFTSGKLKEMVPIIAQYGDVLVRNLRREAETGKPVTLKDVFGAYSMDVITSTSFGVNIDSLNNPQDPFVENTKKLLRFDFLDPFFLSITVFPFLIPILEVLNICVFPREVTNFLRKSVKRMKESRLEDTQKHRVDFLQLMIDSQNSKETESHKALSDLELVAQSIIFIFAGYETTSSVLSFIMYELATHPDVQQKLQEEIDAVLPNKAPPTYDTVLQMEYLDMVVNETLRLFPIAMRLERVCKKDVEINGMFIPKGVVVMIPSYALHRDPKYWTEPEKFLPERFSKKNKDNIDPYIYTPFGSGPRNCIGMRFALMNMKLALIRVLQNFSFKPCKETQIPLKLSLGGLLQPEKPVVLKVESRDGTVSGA

For the molecule `CC[C@H]1[C@@H]2C[C@H]3[C@@H]4N(C)c5ccccc5[C@]45C[C@@H]([C@@H]2[C@H]5O)N3[C@@H]1O` [Amjaline], the Ki at CYP2D6 is above 30 µM.
Turning to `O=C(O)c1ccccc1-c1c2ccc(=O)cc-2oc2cc(OCOCc3ccccc3)ccc12` [BOMF, Benzyloxymethylfluorescein], the type of kinetics result at CYP2C9 and at CYP3A4 [1] was “MichaelisMenten” in each case. Besides, the “v (1.25 uM)” value on CYP2C9 (turnover rate at 1.25 uM substrate, 200 mM Tris-HCl buffer, pH 7.5) came to 1.28 min⁻¹; at CYP3A4 [1] (turnover rate at 1.25 uM substrate, 100 mM K+ phosphate, pH 8.0) it was 0.53 min⁻¹. Besides, the “v (10 uM)” value at CYP2C9 (turnover rate at 10 uM substrate, 200 mM Tris-HCl buffer, pH 7.5) is 2.84 min⁻¹; at CYP3A4 [1] (turnover rate at 10 uM substrate, 100 mM K+ phosphate, pH 8.0) it was 3.40 min⁻¹.
With `O=c1ccc2nc3ccc(OCc4ccccc4)cc3oc-2c1` [BR, Benzylresorufin, reference compound], the type of kinetics entry is “Michaelis-Menten” at CYP3A4 [2] and “notMichaelis-Menten” on CYP 2B6. Moreover, the “v (1.25 uM)” value on CYP3A4 [2] (setting [12]) is 0.02 min⁻¹; at CYP 2B6 (setting [12]), 0.42 min⁻¹. The “v (10 uM)” value was 0.08 min⁻¹ at CYP3A4 [2] (setting [13]) and 0.42 min⁻¹ at CYP 2B6 (setting [13]). Besides, the “turnover rate (kcat)” value at CYP3A4 [3] came to 0.00167 s⁻¹. Also, the Km at CYP3A4 [3] (human, CYP 3A4 enzyme) amounted to 5.3 µM.
`CN(C)CCC(c1ccc(Cl)cc1)c1ccccn1` (stereo not drawn) [Chlorpheniramine]: on CYP2D6, the Ki is 2.5 µM.
With `COc1cccc2c1C(=O)c1c(O)c3c(c(O)c1C2=O)C[C@@](O)(C(=O)CO)C[C@@H]3O[C@H]1C[C@H](N)[C@H](O)[C@H](C)O1` [Doxorubicin], at CYP3A4 [4], the “metabolism-dependent inhibitory activity against the CYP3A4 isozyme” value was “at least partial metabolism-dependent inhibitory activity”. Further, the inhibition at 20 min, 10 µM on CYP3A4 [5] (substrate BOMCC) was determined as 81%; against CYP3A4 [5] (substrate BOMR) it was 29%; against CYP3A4 [5] (substrate DBOMF), 3%. Further, the inhibition at 40 min, 10 µM was 79% on CYP3A4 [5] (substrate BOMCC), 72% against CYP3A4 [5] (substrate BOMR) and 33% against CYP3A4 [5] (substrate DBOMF). Besides, the Ki at CYP2D6 came out at 8 µM.

B1: CYP 2C8 (Homo sapiens) (protein)
chain: MEPFVVLVLCLSFMLLFSLWRQSCRRRKLPPGPTPLPIIGNMLQIDVKDICKSFTNFSKVYGPVFTVYFGMNPIVVFHGYEAVKEALIDNGEEFSGRGNSPISQRITKGLGIISSNGKRWKEIRRFSLTTLRNFGMGKRSIEDRVQEEAHCLVEELRKTKASPCDPTFILGCAPCNVICSVVFQKRFDYKDQNFLTLMKRFNENFRILNSPWIQVCNNFPLLIDCFPGTHNKVLKNVALTRSYIREKVKEHQASLDVNNPRDFIDCFLIKMEQEKDNQKSEFNIENLVGTVADLFVAGTETTSTTLRYGLLLLLKHPEVTAKVQEEIDHVIGRHRSPCMQDRSHMPYTDAVVHEIQRYSDLVPTGVPHAVTTDTKFRNYLIPKGTTIMALLTSVLHDDKEFPNPNIFDPGHFLDKNGNFKKSDYFMPFSAGKRICAGEGLARMELFLFLTTILQNFNLKSVDDLKNLNTTAVTKGIVSLPPSYQICFIPV
On to B1, for which, in [6], the Km is 3.6 µM, the kcat worked out at 0.035 s⁻¹ and the kcat/Km came to 9722 M⁻¹ s⁻¹. For the same molecule, in data set [7], the Km turned out to be 2.0 µM, the kcat was 0.0067 s⁻¹ and the kcat/Km turned out to be 3333 M⁻¹ s⁻¹.

B2: CYP 2D6 (Homo sapiens) (protein)
chain: MGLEALVPLAVIVAIFLLLVDLMHRRQRWAARYPPGPLPLPGLGNLLHVDFQNTPYCFDQLRRRFGDVFSLQLAWTPVVVLNGLAAVREALVTHGEDTADRPPVPITQILGFGPRSQGVFLARYGPAWREQRRFSVSTLRNLGLGKKSLEQWVTEEAACLCAAFANHSGRPFRPNGLLDKAVSNVIASLTCGRRFEYDDPRFLRLLDLAQEGLKEESGFLREVLNAVPVLLHIPALAGKVLRFQKAFLTQLDELLTEHRMTWDPAQPPRDLTEAFLAEMEKAKGNPESSFNDENLRIVVADLFSAGMVTTSTTLAWGLLLMILHPDVQRRVQQEIDDVIGQVRRPEMGDQAHMPYTTAVIHEVQRFGDIVPLGVTHMTSRDIEVQGFRIPKGTTLITNLSSVLKDEAVWEKPFRFHPEHFLDAQGHFVKPEAFLPFSAGRRACLGEPLARMELFLFFTSLLQHFSFSVPTGQPRPSHHGVFAFLVSPSPYELCAVPR
Turning to B2, the Km in data set [8] came out at 3.1 µM; in data set [9], 18 µM; in data set [10], 5.0 µM; in data set [11] it was 8 µM. The kcat in data set [8] was 0.000817 s⁻¹; in [9], 0.0017 s⁻¹; in data set [10], 0.01 s⁻¹; in data set [11], 0.00567 s⁻¹. In addition, the kcat/Km in data set [8] was 263 M⁻¹ s⁻¹; in data set [9], 93 M⁻¹ s⁻¹; in data set [10], 2067 M⁻¹ s⁻¹; in [11] it was 708 M⁻¹ s⁻¹.
